Assay results from patent US20070036776A1, “Bacterial signaling molecules that down-regulate pathogenic bacterial virulence properties” (priority 2004, published 2007).

Test system: human peripheral blood mononuclear cells (PBMCs)
Format: cell-based

Row | Substance | induction of T cell proliferation | concentration of maximum stimulation [ng/mL] | half maximal proliferation
1 | staphylococcal superantigen-like protein 11 [SSL11] | not able to induce |  | 
2 | toxic shock syndrome toxin-1 [TSST-1] |  | 50 | approximately 500 pg/mL
